This note sets out measurements from patent US9149051B2, “Dairy composition with high-potency sweetener” (THE COCA-COLA COMPANY, priority 2005, dated 2015).

A short description of this data set: Rate of dissolution in H2O at 25° C. of rebaudioside A polymorph and amorphous forms. The data set is classed as physicochemical. The conditions noted are these: rating in words. From the text: The purification of rebaudioside A by crystallization as described above results in the formation of at least three different polymorphs: Form 1: a rebaudioside A hydrate; Form 2: an anhydrous rebaudioside A; and Form 3: a rebaudioside A solvate. In addition to the at least three polymorph forms of rebaudioside A, the purification of rebaudioside A may result in the formation of an amorphous form of rebaudioside A, Form 4. The aqueous organic solution and temperature of the purification process influence the resulting polymorph and amorphous forms in the substantially pure rebaudioside A composition. FIGS. 1-5 are exemplary powder x-ray diffraction (XRPD) scans of the polymorph and amorphous forms of rebaudioside A: Form 1 (hydrate), Form 2 (anhydrate), Form 3A (methanol solvate), Form 3B (ethanol solvate), and Form 4 (amorphous), respectively.
Take rebaudioside A [Form 1]: the “Rate of dissolution in H2O at 25° C.” value is given as “Very low”.
rebaudioside A [Form 2]: the “Rate of dissolution in H2O at 25° C.” value is recorded as “Intermediate”.
Turning to rebaudioside A [Form 3], the “Rate of dissolution in H2O at 25° C.” value is “High”.
As for rebaudioside A [Form 4], the “Rate of dissolution in H2O at 25° C.” value is reported as “High”.
